# Measured values from US7138361B2, “Herbicidal heterocycles” (E. I. du Pont de Nemours and Company, priority 2000, dated 2006).
# Experiments:
# Type in all cases: in vivo
# Nightshade [1] = assay: Test C preemergence; settings: Rate 500 g/ha, visual evaluation after 12 to 14 days
# [2] = test system: smallflower flatsedge (Cyperus difformis); assay: Test C flooded paddy test; settings: for Plant response rating, Flatsedge: scale 0 to 100 (0 no effect, 100 complete control)
# Outline: (§1)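 Visual injury score, 0 (no effect) to 100 (complete control), relative to controls. Paddy plants treated at 2-leaf stage; greenhouse hold 12–14 d before rating.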
# [3] = test system: duck salad (Heteranthera limosa); assay: Test C flooded paddy test; settings: for Plant response rating, Ducksalad: scale 0 to 100 (0 no effect, 100 complete control)
# Outline: as §1
# rice (Oryza saliva) = assay: Test C flooded paddy test; settings: for Plant response rating, Rice: scale 0 to 100 (0 no effect, 100 complete control)
# Outline: as §1
# [4] = test system: bermudagrass (Cynodon dactylon); assay: Test C preemergence
# Outline: (§2)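 Pre- and postemergence treatments used a non-phytotoxic solvent/surfactant formulation; post-treated plants measured 2 to 18 cm. Greenhouse hold 12–14 d; % control estimated visually relative to controls.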
# [5] = test system: woolly cupgrass (Eriochloa villosa); assay: Test C preemergence
# Outline: as §2
# [6] = test system: Surinam grass (Brachiaria decumbens); assay: Test C preemergence
# Outline: as §2
# [7] = test system: morningglory (Ipomoea hederacea); assay: Test C preemergence
# Outline: as §2
# [8] = test system: common ragweed (Ambrosia elatior); assay: Test C preemergence
# Outline: as §2
# soybean (Glycine max) = assay: Test C preemergence
# Outline: as §2
# corn (Zea mays) = assay: Test C preemergence
# Outline: as §2
# Nightshade [9] = assay: Test C preemergence
# [10] = test system: pigweed (Amaranthus retroflexus); assay: Test C preemergence
# Outline: as §2
# [11] = test system: giant foxtail (Setaria faberii); assay: Test C preemergence
# Outline: as §2
# Sunflower = assay: Test C preemergence; settings: Rate 125 g/ha; scale 0 to 100, 0 no effect, 100 complete control
# kochia (Kochia scoparia) = assay: Test C preemergence
# Outline: as §2
# [12] = test system: goosegrass (Eleusine indica); assay: Test C preemergence
# Outline: as §2
# [13] = test system: yellow nutsedge (Cyperus esculentus); assay: Test C preemergence
# Outline: as §2
# [14] = test system: lambsquarters (Chenopodium album); assay: Test C preemergence
# Outline: as §2
# [15] = test system: velvetleaf (Abutilon theophrasti); assay: Test C preemergence
# Outline: as §2
# [16] = test system: cocklebur (Xanthium strumarium); assay: Test C preemergence
# Outline: as §2
# [17] = test system: crabgrass (Digitaria sanguinalis); assay: Test C preemergence
# Outline: as §2
# [18] = test system: johnsongrass (Sorghum halepense); assay: Test C preemergence
# Outline: as §2
# [19] = Flooded Paddy, Rate 500 g/ha, scale 0 to 100, 0 no effect, 100 complete control
# [20] = flooded paddy test, Rate 125 g/ha
# [21] = flooded paddy test, Rate 250 g/ha
# [22] = flooded paddy test, Rate 62 g/ha, visually evaluated after 12 to 14 days, 0 = no effect, 100 = complete control
# [23] = Rate 125 g/ha, scale 0 to 100, 0 no effect, 100 complete control
# [24] = preemergence, Rate 62 g/ha, scale 0 to 100
# [25] = preemergence, Rate 500 g/ha, visual evaluation after 12 to 14 days
# [26] = preemergence, Rate 250 g/ha, scale 0 to 100, 0 no effect, 100 complete control
structure (smiles),measurement,setting,value
COc1cc(N2CCC(n3ccc(C(C)(C)C)n3)C2=O)ccc1Br (stereo not shown) [Compound 141],"Plant response rating (0 to 100), Nightshade",Nightshade [1],100
same,Flatsedge plant response rating,[2]; [19],95
same,"Plant response rating, Flatsedge",[2]; [20],90
same,"Plant response rating, Flatsedge",[2]; [21],95
same,"Plant response rating (scale 0 to 100), Flatsedge",[2]; [22],90
same,Ducksalad plant response rating,[3]; [19],100
same,"Plant response rating, Ducksalad",[3]; [20],95
same,"Plant response rating, Ducksalad",[3]; [21],100
same,"Plant response rating (scale 0 to 100), Ducksalad",[3]; [22],85
same,Rice plant response rating,rice (Oryza saliva); [19],35
same,"Plant response rating, Rice",rice (Oryza saliva); [20],25
same,"Plant response rating, Rice",rice (Oryza saliva); [21],30
same,"Plant response rating (scale 0 to 100), Rice",rice (Oryza saliva); [22],0
same,"Plant response rating, Bermudagrass",[4]; [23],100
same,"Plant response rating, Bermudagrass",[4]; [24],100
same,"Plant response rating (0 to 100 where 0 is no effect and 100 is complete control), Bermudagrass",[4]; [25],100
same,"Plant response rating, Bermudagrass",[4]; [26],100
same,"Plant response rating, Cupgrass, Woolly",[5]; [23],100
same,"Plant response rating, Cupgrass, Woolly",[5]; [24],100
same,"Plant response rating (0 to 100), Cupgrass, Woolly",[5]; [25],100
same,"Plant response rating, Cupgrass, Woolly",[5]; [26],100
same,"Plant response rating, Surinam grass",[6]; [23],20
same,"Plant response rating, Surinam grass",[6]; [24],10
same,"Plant response rating (0 to 100), Surinam grass",[6]; [25],100
same,"Plant response rating, Surinam grass",[6]; [26],20
same,"Plant response rating, Morningglory",[7]; [23],100
same,"Plant response rating, Morningglory",[7]; [24],30
same,"Plant response rating (0 to 100), Morningglory",[7]; [25],100
same,"Plant response rating, Morningglory",[7]; [26],100
same,"Plant response rating, Ragweed, Common",[8]; [23],100
same,"Plant response rating, Ragweed, Common",[8]; [24],100
same,"Plant response rating (0 to 100), Ragweed, Common",[8]; [25],100
same,"Plant response rating, Ragweed, Common",[8]; [26],100
same,"Plant response rating, Soybean",soybean (Glycine max); [23],100
same,"Plant response rating, Soybean",soybean (Glycine max); [24],70
same,"Plant response rating (0 to 100), Soybean",soybean (Glycine max); [25],100
same,"Plant response rating, Soybean",soybean (Glycine max); [26],100
same,"Plant response rating, Corn",corn (Zea mays); [23],30
same,"Plant response rating, Corn",corn (Zea mays); [24],0
same,"Plant response rating (0 to 100), Corn",corn (Zea mays); [25],30
same,"Plant response rating, Corn",corn (Zea mays); [26],30
same,"Plant response rating, Nightshade","Nightshade [9]; Rate 62 g/ha, scale 0 to 100",100
same,"Plant response rating, Nightshade",Nightshade [9]; [23],100
same,"Plant response rating, Nightshade","Nightshade [9]; Rate 250 g/ha, scale 0 to 100, 0 no effect, 100 complete control",100
same,"Plant response rating, Pigweed",[10]; [23],100
same,"Plant response rating, Pigweed",[10]; [24],100
same,"Plant response rating (0 to 100), Pigweed",[10]; [25],100
same,"Plant response rating, Pigweed",[10]; [26],100
same,"Plant response rating, Foxtail, Giant",[11]; [23],100
same,"Plant response rating, Foxtail, Giant",[11]; [24],100
same,"Plant response rating (0 to 100), Foxtail, Giant",[11]; [25],100
same,"Plant response rating, Foxtail, Giant",[11]; [26],100
same,"Plant response rating, Sunflower",Sunflower,40
same,"Plant response rating, Kochia",kochia (Kochia scoparia); [23],100
same,"Plant response rating, Kochia",kochia (Kochia scoparia); [24],100
same,"Plant response rating (0 to 100), Kochia",kochia (Kochia scoparia); [25],100
same,"Plant response rating, Kochia",kochia (Kochia scoparia); [26],100
same,"Plant response rating, Goosegrass",[12]; [23],100
same,"Plant response rating, Goosegrass",[12]; [24],100
same,"Plant response rating (0 to 100), Goosegrass",[12]; [25],100
same,"Plant response rating, Goosegrass",[12]; [26],100
same,"Plant response rating, Nutsedge",[13]; [23],0
same,"Plant response rating, Nutsedge",[13]; [24],0
same,"Plant response rating (0 to 100), Nutsedge",[13]; [25],50
same,"Plant response rating, Nutsedge",[13]; [26],0
same,"Plant response rating, Lambsquarters",[14]; [23],100
same,"Plant response rating, Lambsquarters",[14]; [24],100
same,"Plant response rating (0 to 100), Lambsquarters",[14]; [25],100
same,"Plant response rating, Lambsquarters",[14]; [26],100
same,"Plant response rating, Velvetleaf",[15]; [23],70
same,"Plant response rating, Velvetleaf",[15]; [24],70
same,"Plant response rating (0 to 100), Velvetleaf",[15]; [25],100
same,"Plant response rating, Velvetleaf",[15]; [26],70
same,"Plant response rating, Cocklebur",[16]; [23],60
same,"Plant response rating, Cocklebur",[16]; [24],0
same,"Plant response rating (0 to 100), Cocklebur",[16]; [25],100
same,"Plant response rating, Cocklebur",[16]; [26],70
same,"Plant response rating, Crabgrass",[17]; [23],100
same,"Plant response rating, Crabgrass",[17]; [24],100
same,"Plant response rating (0 to 100), Crabgrass",[17]; [25],100
same,"Plant response rating, Crabgrass",[17]; [26],100
same,"Plant response rating, Johnsongrass",[18]; [23],0
same,"Plant response rating, Johnsongrass",[18]; [24],0
same,"Plant response rating (0 to 100), Johnsongrass",[18]; [25],100
same,"Plant response rating, Johnsongrass",[18]; [26],0
